From PubChem BioAssay AID1963436 (Molecular Pharmacology Branch, DTP, NCI, 2024)

System: OVCAR-5 complex spheroid (HUVEC/MSC), viability % T/C
Assay: Anticancer human tumor OVCAR-5 cell line growth inhibition [Asc];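 note: spheroids exposed to agents for 7 days before readout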;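 for viability, T/C: 100% = DMSO vehicle-treated wells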
Settings: for IC50: curve of first compound; for viability, T/C: stronger effect = lower value; active = viability on the fitted dose curve at most 10% of control; inactive = the rest
In short: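 Tumor cells were grown as complex spheroids with human endothelial cells (HUVEC) and human mesenchymal stem cells as stroma. Agents were tested alone and in combination, in half-log steps down from the clinical Cmax, or from 10 microM where Cmax was unknown.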

[1] = second compound 0.01 µM, first compound 0.00316 µM
[2] = second compound 0.01 µM, first compound 0.01 µM
[3] = second compound 0.01 µM, first compound 0.0316 µM
[4] = second compound 0.01 µM, first compound 0.1 µM
[5] = second compound 0.01 µM, first compound 0.316 µM
[6] = second compound 0.01 µM, first compound 1 µM
[7] = second compound 0.0316 µM, first compound 0.00316 µM
[8] = second compound 0.0316 µM, first compound 0.01 µM
[9] = second compound 0.0316 µM, first compound 0.0316 µM
[10] = second compound 0.0316 µM, first compound 0.1 µM
[11] = second compound 0.0316 µM, first compound 0.316 µM
[12] = second compound 0.0316 µM, first compound 1 µM
[13] = second compound 0.1 µM, first compound 0.00316 µM
[14] = second compound 0.1 µM, first compound 0.01 µM
[15] = second compound 0.1 µM, first compound 0.0316 µM
[16] = second compound 0.1 µM, first compound 0.1 µM
[17] = second compound 0.1 µM, first compound 0.316 µM
[18] = second compound 0.1 µM, first compound 1 µM
[19] = second compound 0.316 µM, first compound 0.00316 µM
[20] = second compound 0.316 µM, first compound 0.01 µM
[21] = second compound 0.316 µM, first compound 0.0316 µM
[22] = second compound 0.316 µM, first compound 0.1 µM
[23] = second compound 0.316 µM, first compound 0.316 µM
[24] = second compound 0.316 µM, first compound 1 µM
[25] = second compound 1 µM, first compound 0.00316 µM
[26] = second compound 1 µM, first compound 0.01 µM
[27] = second compound 1 µM, first compound 0.0316 µM
[28] = second compound 1 µM, first compound 0.1 µM
[29] = second compound 1 µM, first compound 0.316 µM
[30] = second compound 1 µM, first compound 1 µM

CCN1CCN(Cc2ccc(Nc3ncc(F)c(-c4cc(F)c5nc(C)n(C(C)C)c5c4)n3)nc2)CC1 + CNC(C)C(=O)NC1CN(S(=O)(=O)c2cccc(S(=O)(=O)N3CCC4CCC(C(=O)NC(c5ccccc5)c5ccccc5)N4C(=O)C(NC(=O)C(C)NC)C3)c2)CCC2CCC(C(=O)NC(c3ccccc3)c3ccccc3)N2C1=O
inactive: viability, T/C [1] 87.1% | viability, T/C [2] 83.2% | viability, T/C [3] 67.7% | viability, T/C [4] 59.5% | viability, T/C [5] 62.7% | viability, T/C [6] 49.9% | viability, T/C [7] 76% | viability, T/C [8] 71.9% | viability, T/C [9] 58.4% | viability, T/C [10] 55.2% | viability, T/C [11] 57.2% | viability, T/C [12] 49.3% | viability, T/C [13] 76.8% | viability, T/C [14] 67.2% | viability, T/C [15] 55.4% | viability, T/C [16] 50% | viability, T/C [17] 55% | viability, T/C [18] 47% | viability, T/C [19] 69.3% | viability, T/C [20] 70.3% | viability, T/C [21] 59% | viability, T/C [22] 54.8% | viability, T/C [23] 52% | viability, T/C [24] 49.4% | viability, T/C [25] 76.8% | viability, T/C [26] 65.3% | viability, T/C [27] 65.9% | viability, T/C [28] 58.9% | viability, T/C [29] 51.9% | viability, T/C [30] 51.5%
642 nM: IC50 (second compound 0.316 µM)
> 1000 nM: IC50 (second compound 0.01 µM) | IC50 (second compound 0.0316 µM) | IC50 (second compound 0.1 µM) | IC50 (second compound 1 µM)

COc1c(OCCCN2CCOCC2)ccc2c3n(c(=NC(=O)c4cnc(N)nc4)nc12)CCN3 + CNC(C)C(=O)NC1CN(S(=O)(=O)c2cccc(S(=O)(=O)N3CCC4CCC(C(=O)NC(c5ccccc5)c5ccccc5)N4C(=O)C(NC(=O)C(C)NC)C3)c2)CCC2CCC(C(=O)NC(c3ccccc3)c3ccccc3)N2C1=O
active: viability, T/C [6] 8.86% | viability, T/C [12] 7.75% | viability, T/C [18] 7.03% | viability, T/C [24] 6.27% | viability, T/C [30] 6.51%
17.6 nM: IC50 (second compound 1 µM)
19.5 nM: IC50 (second compound 0.1 µM)
22.4 nM: IC50 (second compound 0.0316 µM)
29.5 nM: IC50 (second compound 0.01 µM)
18.7 nM: IC50 (second compound 0.316 µM)
inactive: viability, T/C [1] 93.3% | viability, T/C [2] 67.4% | viability, T/C [3] 48% | viability, T/C [4] 35% | viability, T/C [5] 17.1% | viability, T/C [7] 69.8% | viability, T/C [8] 63.6% | viability, T/C [9] 42.5% | viability, T/C [10] 30.2% | viability, T/C [11] 17.6% | viability, T/C [13] 68% | viability, T/C [14] 61.5% | viability, T/C [15] 41.5% | viability, T/C [16] 26.3% | viability, T/C [17] 15.9% | viability, T/C [19] 67.1% | viability, T/C [20] 59.9% | viability, T/C [21] 41.7% | viability, T/C [22] 25.3% | viability, T/C [23] 13.1% | viability, T/C [25] 82.9% | viability, T/C [26] 56.1% | viability, T/C [27] 42.1% | viability, T/C [28] 27.1% | viability, T/C [29] 12.3%

NC(=O)C(=Cn1cnc(-c2cc(C(F)(F)F)cc(C(F)(F)F)c2)n1)c1cncnc1 + CNC(C)C(=O)NC1CN(S(=O)(=O)c2cccc(S(=O)(=O)N3CCC4CCC(C(=O)NC(c5ccccc5)c5ccccc5)N4C(=O)C(NC(=O)C(C)NC)C3)c2)CCC2CCC(C(=O)NC(c3ccccc3)c3ccccc3)N2C1=O
inactive: viability, T/C (second compound 0.01 µM, first compound 0.000949 µM) 95.4% | viability, T/C (second compound 0.01 µM, first compound 0.003 µM) 95.5% | viability, T/C (second compound 0.01 µM, first compound 0.00949 µM) 91.4% | viability, T/C (second compound 0.01 µM, first compound 0.03 µM) 76.5% | viability, T/C (second compound 0.01 µM, first compound 0.0949 µM) 63% | viability, T/C (second compound 0.01 µM, first compound 0.3 µM) 45.5% | viability, T/C (second compound 0.0316 µM, first compound 0.000949 µM) 96% | viability, T/C (second compound 0.0316 µM, first compound 0.003 µM) 89.2% | viability, T/C (second compound 0.0316 µM, first compound 0.00949 µM) 73.3% | viability, T/C (second compound 0.0316 µM, first compound 0.03 µM) 67.7% | viability, T/C (second compound 0.0316 µM, first compound 0.0949 µM) 60% | viability, T/C (second compound 0.0316 µM, first compound 0.3 µM) 39% | viability, T/C (second compound 0.1 µM, first compound 0.000949 µM) 86.6% | viability, T/C (second compound 0.1 µM, first compound 0.003 µM) 89.9% | viability, T/C (second compound 0.1 µM, first compound 0.00949 µM) 77.4% | viability, T/C (second compound 0.1 µM, first compound 0.03 µM) 66.3% | viability, T/C (second compound 0.1 µM, first compound 0.0949 µM) 57.2% | viability, T/C (second compound 0.1 µM, first compound 0.3 µM) 38% | viability, T/C (second compound 0.316 µM, first compound 0.000949 µM) 82.2% | viability, T/C (second compound 0.316 µM, first compound 0.003 µM) 84.1% | viability, T/C (second compound 0.316 µM, first compound 0.00949 µM) 69.4% | viability, T/C (second compound 0.316 µM, first compound 0.03 µM) 66.7% | viability, T/C (second compound 0.316 µM, first compound 0.0949 µM) 60% | viability, T/C (second compound 0.316 µM, first compound 0.3 µM) 37% | viability, T/C (second compound 1 µM, first compound 0.000949 µM) 85.7% | viability, T/C (second compound 1 µM, first compound 0.003 µM) 82.8% | viability, T/C (second compound 1 µM, first compound 0.00949 µM) 79.8% | viability, T/C (second compound 1 µM, first compound 0.03 µM) 70.6% | viability, T/C (second compound 1 µM, first compound 0.0949 µM) 54.9% | viability, T/C (second compound 1 µM, first compound 0.3 µM) 33.4%
124 nM: IC50 (second compound 1 µM)
135 nM: IC50 (second compound 0.1 µM)
222 nM: IC50 (second compound 0.01 µM)
147 nM: IC50 (second compound 0.0316 µM)
141 nM: IC50 (second compound 0.316 µM)

NC1CCC(NC2CC2c2ccccc2)CC1 (stereo not given) + CNC(C)C(=O)NC1CN(S(=O)(=O)c2cccc(S(=O)(=O)N3CCC4CCC(C(=O)NC(c5ccccc5)c5ccccc5)N4C(=O)C(NC(=O)C(C)NC)C3)c2)CCC2CCC(C(=O)NC(c3ccccc3)c3ccccc3)N2C1=O
> 100 nM: IC50 (second compound 0.01 µM) | IC50 (second compound 0.0316 µM) | IC50 (second compound 0.1 µM) | IC50 (second compound 0.316 µM) | IC50 (second compound 1 µM)
inactive: viability, T/C (second compound 0.01 µM, first compound 0.000316 µM) 92.9% | viability, T/C (second compound 0.01 µM, first compound 0.001 µM) 89.8% | viability, T/C [1] 80.8% | viability, T/C [2] 84.8% | viability, T/C [3] 80.8% | viability, T/C [4] 79.9% | viability, T/C (second compound 0.0316 µM, first compound 0.000316 µM) 75.8% | viability, T/C (second compound 0.0316 µM, first compound 0.001 µM) 77.7% | viability, T/C [7] 75.6% | viability, T/C [8] 71.5% | viability, T/C [9] 69.1% | viability, T/C [10] 66.9% | viability, T/C (second compound 0.1 µM, first compound 0.000316 µM) 76.5% | viability, T/C (second compound 0.1 µM, first compound 0.001 µM) 70% | viability, T/C [13] 75.5% | viability, T/C [14] 67.3% | viability, T/C [15] 74.5% | viability, T/C [16] 71% | viability, T/C (second compound 0.316 µM, first compound 0.000316 µM) 66.1% | viability, T/C (second compound 0.316 µM, first compound 0.001 µM) 73% | viability, T/C [19] 66.2% | viability, T/C [20] 70.4% | viability, T/C [21] 75.1% | viability, T/C [22] 75.7% | viability, T/C (second compound 1 µM, first compound 0.000316 µM) 72.1% | viability, T/C (second compound 1 µM, first compound 0.001 µM) 74.1% | viability, T/C [25] 70.5% | viability, T/C [26] 72.4% | viability, T/C [27] 80.8% | viability, T/C [28] 78.1%
